This is an account of results in patent publication US5747448A, “Derivatives of cyclodepsipeptide PF 1022” (Meiji Seika Kaisha, Ltd., priority 1993, dated 1998).

Like-named read-outs stand apart in the source and are kept apart here.

For data set [1] the following is noted: amide bond, 24-membered ring, THF/DMF.
Data set [2] has as its system Nippostrongylus brasillensis. Kind of data set: Anthelmintic effects on a rat intestinal nematode (N. brasillensis-infected rats). It counts as in vivo. To be noted: male Wistar rats; for Number of remaining worms (average value ± SD): 10 mg/kg p.o. 7 days after inoculation, autopsy 10 days after inoculation; for % Effectiveness: 10 mg/kg p.o., compared with infected control group. The method, then: Anthelmintic effects of certain PF1022 derivatives on a rat intestinal nematode were tested in accordance with the following method.
Sixteen male Wistar rats were divided into eight groups (two rats per group), and about 2,000 larval worms of Nippostrongylus brasillensis were hypodermically inoculated per rat. Seven days after the inoculation, PF1022, PF1022E, PF1022-002, PF1022-003, PF1022-209, PF1022-218 and PF1022-219 were, as test substances, forcedly administered p.o. to the rats in the groups, respectively, in an amount of 10 mg/kg per rat. Upon administration, each test substance (8 mg) was dissolved in 0.2 ml of dimethyl sulfoxide and then, the resultant solution was diluted with distilled water to give a 2 ml suspension. Ten days after the inoculation,the rats were each subjected to autopsy and imaginal worms parasitic on the small intestines were counted.
As the test results, the average of remaining worms in each of the eight groups and the percent effectiveness of the test substance in each group as compared with that of the infected control group are shown in Table 4.

The subject of a further data set is fowl roundworms. In words: Fowl Roundworm Eliminating Test. It counts as in vivo. Conditions: infected fowls, worms counted to day 7. The protocol: Test 1 Fowl Roundworm Eliminating Test Fowls (three fowls per group), which had been artificially infected with fowl roundworms and whose infection therewith had been confirmed by scatoscopy, were used as experimental animals. Upon administration of each test substance, the test substance weighed in a dose (mg) accurately calculated on the basis of the body weight (kg) of each fowl was suspended in carboxymethylcellulose-containing water, and the resulting suspension was administered orally as a single dose unit using a stomach tube. After the administration, the worms eliminated from the fowls were counted daily. Seven days after the administration, the fowl was sacrificed and autopsied and the worms remaining in its intestinal tract were counted. The percent elimination was calculated in accordance with the following calculation equation: [formula] Each test substance is indicated by the corresponding substance code name shown above in Table 1.

In data set [1] (from H-MeLeu-dOctA-MeLeu-dLac-MeLeu-dOctA-MeLeu-dLac-OH, EDCI.HCl/HOBt/NMM/LiCl/NaCl/KCl/CsCl, 0.81 mM), `CCCCCC[C@H]1OC(=O)[C@H](CC(C)C)N(C)C(=O)[C@@H](C)OC(=O)[C@H](CC(C)C)N(C)C(=O)[C@@H](CCCCCC)OC(=O)[C@H](CC(C)C)N(C)C(=O)[C@@H](C)OC(=O)[C@H](CC(C)C)N(C)C1=O` [Cyclo-(L-MeLeu-D-OctA-L-MeLeu-D-Lac)2] returned a ring closure, isolated yield of 92%.

For the compound `CC(C)C[C@@H]1NC(=O)[C@@H](C)OC(=O)[C@H](CC(C)C)N(C)C(=O)[C@@H](Cc2ccccc2)OC(=O)[C@H](CC(C)C)NC(=O)[C@@H](C)OC(=O)[C@H](CC(C)C)N(C)C(=O)[C@@H](Cc2ccccc2)OC1=O` [Cyclo-(L-MeLeu-D-Lac-L-Leu-D-PhLac)2], the ring closure, isolated yield in data set [1] (from H-MeLeu-dLac-Leu-dPhLac-MeLeu-dLac-Leu-dPhLac-OH, EDCI.HCl/HOBt/NMM, LiCl/KCl/NaCl/CsCl, 0.96 mM, 25.0 °C, 3 steps) was found to be 55.8%.

Regarding `CC(C)CC1NC(=O)C(Cc2ccccc2)OC(=O)C(CC(C)C)N(C)C(=O)C(C)OC(=O)C(CC(C)C)NC(=O)C(Cc2ccccc2)OC(=O)C(CC(C)C)N(C)C(=O)C(C)OC1=O` [PF1022-218, cyclo-(L-MeLeu-D-PhLac-L-Leu-D-Lac)2], in data set [2], the “Number of remaining worms (average value ± SD)” value worked out at 2400 ± 362.0 and the “% Effectiveness” value was determined as 0%.

Take `CCCC[C@H]1OC(=O)[C@H](CC(C)C)N(C)C(=O)[C@@H](Cc2ccccc2)OC(=O)[C@H](CC(C)C)N(C)C(=O)[C@@H](CCCC)OC(=O)[C@H](CC(C)C)N(C)C(=O)[C@@H](Cc2ccccc2)OC(=O)[C@H](CC(C)C)N(C)C1=O` [Cyclo-(L-MeLeu-D-norLEUA-L-MeLeu-D-PhLac)2]: the ring closure, isolated yield in data set [1] (from H-MeLeu-dnorLEUA-MeLeu-dPhLac-MeLeu-dnorLEUA-MeLeu-dPhLac-OH, EDCI.HCl/HOBt/NMM/LiCl/NaCl/KCl/CsCl, 0.82 mM, 3 steps) amounted to 35.8%.

As for “cyclo-(L-MeLeu-D-PhLac-L-MeLeu-D-Lac-L-MeLeu-D-TYRA(O-All)-L-MeLeu-D-Lac) [PF1022-020]”, the “% Elimination” value in the data set with fowl roundworms (single oral dose 1.0 mg/kg) is 54%; in the data set on fowl roundworms (single oral dose 2.0 mg/kg), 100%.

“cyclo-(L-MeLeu-D-VALA-L-MeLeu-D-Lac)2 [PF1022-209]”: in data set [2], the “Number of remaining worms (average value ± SD)” value was determined as 827 ± 388.9. The “% Effectiveness” value in data set [2] (10 mg/kg) stood at 59.3%; in data set [2] (listed as PF 1022-209, 10 mg/kg) it was 59.8%.

In the case of `CC(C)C[C@H]1C(=O)O[C@H](C(C)C)C(=O)N(C)[C@@H](CC(C)C)C(=O)O[C@H](Cc2ccccc2)C(=O)N(C)[C@@H](CC(C)C)C(=O)O[C@H](C(C)C)C(=O)N(C)[C@@H](CC(C)C)C(=O)O[C@H](Cc2ccccc2)C(=O)N1C` [cyclo(L-MeLeu-D-VALA-L-MeLeu-D-PhLac)2], the ring closure, isolated yield in data set [1] (from H-MeLeu-dVALA-MeLeu-dPhLac-MeLeu-dVALA-MeLeu-dPhLac-OH, EDCI.HCl/HOBt/NMM/LiCl/KCl/NaCl/CsCl, 0.9 mM, 25.0 °C) worked out at 56.5%.

As to `CC(C)C[C@@H]1NC(=O)[C@@H](Cc2ccccc2)OC(=O)[C@H](CC(C)C)N(C)C(=O)[C@@H](C)OC(=O)[C@H](CC(C)C)NC(=O)[C@@H](Cc2ccccc2)OC(=O)[C@H](CC(C)C)N(C)C(=O)[C@@H](C)OC1=O` [Cyclo-(L-MeLeu-D-PhLac-L-Leu-D-Lac)2], in data set [1] (from H-MeLeu-dPhLac-Leu-dLac-MeLeu-dPhLac-Leu-dLac-OH, EDCI.HCl/HOBt/NMM, LiCl/KCl/NaCl/CsCl, 0.96 mM, 25.0 °C, 3 steps), the ring closure, isolated yield was 62%.

`CC(C)C[C@H]1C(=O)O[C@H](Cc2ccc(O)cc2)C(=O)N(C)[C@@H](CC(C)C)C(=O)O[C@H](C)C(=O)N(C)[C@@H](CC(C)C)C(=O)O[C@H](Cc2ccccc2)C(=O)N(C)[C@@H](CC(C)C)C(=O)O[C@H](C)C(=O)N1C` [H-MeLeu-dLac-MeLeu-dTYRA-MeLeu-dLac-MeLeu-dPhLac-OH]: the ring closure, isolated yield in data set [1] (from H-MeLeu-dLac-MeLeu-dTYRA-MeLeu-dLac-MeLeu-dPhLac-OH, EDCI.HCl/HOBt/NMM/LiCl/KCl/NaCl/CsCl, 0.89 mM) was found to be 33%.

`CC(C)C[C@H]1C(=O)O[C@H](C)C(=O)N(C)[C@@H](CC(C)C)C(=O)O[C@H](C)C(=O)N(C)[C@@H](CC(C)C)C(=O)O[C@H](C)C(=O)N(C)[C@@H](CC(C)C)C(=O)O[C@H](C)C(=O)N1C` [cyclo-(L-MeLeu-D-Lac-)4]: the ring closure, isolated yield in data set [1] (from H-MeLeu-dLac-MeLeu-dLac-MeLeu-dLac-MeLeu-dLac-OH, EDCI.HCl/HOBt/NMM/KCl/CsCl, 1.0 mM, 3 steps) came to 86%.

With `CC[C@@H](C)[C@H]1OC(=O)[C@H](CC(C)C)N(C)C(=O)[C@@H](Cc2ccccc2)OC(=O)[C@H](CC(C)C)N(C)C(=O)[C@@H]([C@H](C)CC)OC(=O)[C@H](CC(C)C)N(C)C(=O)[C@@H](Cc2ccccc2)OC(=O)[C@H](CC(C)C)N(C)C1=O` [Cyclo-(L-MeLeu-D-isoLEUA-L-MeLeu-D-PhLac)2], in data set [1] (from H-MeLeu-disoLEUA-MeLeu-dPhLac-MeLeu-disoLEUA-MeLeu-dPhLac-OH, EDCI.HCl/HOBt/NMM/LiCl/NaCl/KCl/CsCl, 0.87 mM, 3 steps), the ring closure, isolated yield was 29%.

For “cyclo-(L-MeLeu-D-PhLac-L-MeLeu-D-Lac-L-MeLeu-D-TYRA(OBn)-L-MeLeu-D-Lac) [PF1022-022]”, the “% Elimination” value is 40% in the data set on fowl roundworms (single oral dose 1.0 mg/kg), 93% in the data set with fowl roundworms (single oral dose 2.0 mg/kg) and 84% in the data set on fowl roundworms (single oral dose 5 mg/kg).

Take `CC(C)C[C@H]1C(=O)O[C@H](Cc2ccc(O)cc2)C(=O)N(C)[C@@H](CC(C)C)C(=O)O[C@H](C)C(=O)N(C)[C@@H](CC(C)C)C(=O)O[C@H](Cc2ccccc2)C(=O)N(C)[C@@H](CC(C)C)C(=O)O[C@H](C)C(=O)N1C` [PF1022 E, cyclo-(-L-Meleu-D-Lac-L-MeLeu-D-TYRA-L-MeLeu-D-Lac-L-MeLeu-D-PhLac)]: the “% Elimination” value in the data set on fowl roundworms (single oral dose 0.5 mg/kg) was found to be 70%. For the same compound, in data set [2], the “Number of remaining worms (average value ± SD)” value is 2175 ± 134.4 and the “% Effectiveness” value stood at 0%.

`CC(C)CC1C(=O)OC(C)C(=O)N(C)C(CC(C)C)C(=O)OC(C)C(=O)N(C)C(CC(C)C)C(=O)OC(C)C(=O)N(C)C(CC(C)C)C(=O)OC(C)C(=O)N1C` [PF1022-002, cyclo-(L-MeLeu-D-Lac-)4]: in data set [2], the “Number of remaining worms (average value ± SD)” value is given as 1976.5 and the “% Effectiveness” value amounted to 2.7%.

For `CCOc1ccc(C[C@H]2OC(=O)[C@H](CC(C)C)N(C)C(=O)[C@@H](C)OC(=O)[C@H](CC(C)C)N(C)C(=O)[C@@H](Cc3ccccc3)OC(=O)[C@H](CC(C)C)N(C)C(=O)[C@@H](C)OC(=O)[C@H](CC(C)C)N(C)C2=O)cc1` [PF1022-016, cyclo-(L-MeLeu-D-PhLac-L-MeLeu-D-Lac-L-MeLeu-D-TYRA(OEt)-L-MeLeu-D-Lac)], the “% Elimination” value in the data set on fowl roundworms (single oral dose 0.5 mg/kg) was 55%; in the data set with fowl roundworms (single oral dose 1.0 mg/kg) it was 61%; in the data set with fowl roundworms (single oral dose 2.0 mg/kg) it was 100%.

For `CC(C)CC1C(=O)OC(CC2CCCCC2)C(=O)N(C)C(CC(C)C)C(=O)OC(C)C(=O)N(C)C(CC(C)C)C(=O)OC(CC2CCCCC2)C(=O)N(C)C(CC(C)C)C(=O)OC(C)C(=O)N1C` (stereo not drawn) [PF1022-ADH, dodecahydro-PF1022], the “% Elimination” value in the data set with fowl roundworms (single oral dose 5 mg/kg) was found to be 30%.

As to `CC(C)CC1C(=O)OC(CC2CCCCC2)C(=O)N(C)C(CC(C)C)C(=O)OC(C)C(=O)N(C)C(CC(C)C)C(=O)OC(Cc2ccccc2)C(=O)N(C)C(CC(C)C)C(=O)OC(C)C(=O)N1C` (stereo not drawn) [PF1022-AHH, hexahydro-PF1022], in the data set with fowl roundworms (single oral dose 5 mg/kg), the “% Elimination” value was 62%.

On to `CCCCOc1ccc(C[C@H]2OC(=O)[C@H](CC(C)C)N(C)C(=O)[C@@H](C)OC(=O)[C@H](CC(C)C)N(C)C(=O)[C@@H](Cc3ccccc3)OC(=O)[C@H](CC(C)C)N(C)C(=O)[C@@H](C)OC(=O)[C@H](CC(C)C)N(C)C2=O)cc1` [PF1022-021, cyclo-(L-MeLeu-D-PhLac-L-MeLeu-D-Lac-L-MeLeu-D-TYRA(O-n-Bu)-L-MeLeu-D-Lac)], for which the “% Elimination” value in the data set on fowl roundworms (single oral dose 1.0 mg/kg) was 41%; in the data set with fowl roundworms (single oral dose 2.0 mg/kg) it was 90%.

On to `COc1ccc(C[C@H]2OC(=O)[C@H](CC(C)C)N(C)C(=O)[C@@H](C)OC(=O)[C@H](CC(C)C)N(C)C(=O)[C@@H](Cc3ccccc3)OC(=O)[C@H](CC(C)C)N(C)C(=O)[C@@H](C)OC(=O)[C@H](CC(C)C)N(C)C2=O)cc1` [PF1022-005, cyclo-(-L-MeLeu-D-Lac-L-MeLeu-D-PhLac-L-MeLeu-D-Lac-L-MeLeu-D-TYRA(OMe)], for which the “% Elimination” value in the data set with fowl roundworms (single oral dose 0.5 mg/kg) was 73%; with fowl roundworms (single oral dose 1.0 mg/kg), 89%; in the data set on fowl roundworms (single oral dose 2.0 mg/kg), 100%.
